Source: patent US20130216666A1, “CASHEW NUT SHELL LIQUID WITH IMPROVED STABILITY” (IDEMITSU KOSAN CO., LTD., priority 2010, published 2013)

Assays:
[1] = Inhibition of decarboxylation reaction when organic acid chelating agent was added (HPLC); assay type: physicochemical; settings: 80° C.
[2] = Inhibition of decarboxylation reaction in unheated cashew nut shell liquid formulation (silica), citric acid; assay type: physicochemical; settings: 80° C.; for Anacardic Acid 15:1 Composition (%) / Anacardic Acid 15:1 concentration / Anacardic Acid 15:2 Composition (%) / Anacardic Acid 15:2 concentration / Anacardic Acid 15:3 Composition (%) / Anacardic Acid 15:3 concentration / Cardanol 15:1 concentration / Cardanol 15:2 Composition (%) / Cardanol 15:2 concentration / Cardanol 15:3 Composition (%) / Cardanol 15:3 concentration / Cardanol 15:1 Composition (%): mixed with silica; for inhibition of the decarboxylation: formulation with silica, 6 days
From the text: 10 g of silica (Sipernat 22) was placed into each of beakers.

[3] = Inhibition of decarboxylation reaction in feed; settings: 10% by weight in unheated CNSL, 80° C.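 Also: ethyl acetate extract of test feed analysed by reversed-phase C18 HPLC with absorbance detection at 280 nm, giving component composition.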
Protocol: The analysis was carried out under the conditions of a solvent composition of acetonitrile: water: acetic acid =80:20:1 (based on volume), a flow rate of 2 ml/min, a temperature of 25° C., and an absorbance of 280 nm.
Samples were taken from the beakers after 3 days and analyzed for composition by HPLC.
For HPLC analysis, soluble fractions of the test feed was extracted with ethyl acetate and then filtered and dried to concentrate it to 5 mg/ml.

[4] = 2% by weight in unheated CNSL, Day 0
[5] = 2% by weight in unheated CNSL, Day 6
[6] = 10% by weight in unheated CNSL, Day 0
[7] = 10% by weight in unheated CNSL, Day 6
[8] = silica composition 1% by weight in feed, Day 0
[9] = silica composition 1% by weight in feed, Day 3

For `O=C(O)CC(O)(CC(=O)O)C(=O)O` [Citric Acid, citric acid], the “Anacardic Acid 15:1 Composition (%)” value [1, 4] was 39.78%, the “Anacardic Acid 15:1 concentration” value [1, 4] was 332.79 ppm and the “Anacardic Acid 15:2 Composition (%)” value [1, 4] was 14.23%. The “Anacardic Acid 15:2 concentration” value [1, 4] was 119.04 ppm, the “Anacardic Acid 15:3 Composition (%)” value [1, 4] was 33.01% and the “Anacardic Acid 15:3 concentration” value [1, 4] was 276.11 ppm. For the same molecule, the “Cardanol 15:1 concentration” value [1, 4] was 45.23 ppm, the “Cardanol 15:2 Composition (%)” value [1, 4] was 2.32% and the “Cardanol 15:2 concentration” value [1, 4] was 19.40 ppm. The “Cardanol 15:3 Composition (%)” value [1, 4] was 5.25%, the “Cardanol 15:3 concentration” value [1, 4] was 43.93 ppm and the “Anacardic Acid 15:1 Composition (%)” value [1, 5] was 32.78%. For the same molecule, the “Anacardic Acid 15:1 concentration” value [1, 5] was 281.46 ppm, the “Anacardic Acid 15:2 Composition (%)” value [1, 5] was 11.39% and the “Anacardic Acid 15:2 concentration” value [1, 5] was 97.81 ppm. The “Anacardic Acid 15:3 Composition (%)” value [1, 5] was 26.31%, the “Anacardic Acid 15:3 concentration” value [1, 5] was 225.94 ppm and the “Cardanol 15:1 concentration” value [1, 5] was 111.23 ppm. For the same molecule, the “Cardanol 15:2 Composition (%)” value [1, 5] was 4.84%, the “Cardanol 15:2 concentration” value [1, 5] was 41.54 ppm and the “Cardanol 15:3 Composition (%)” value [1, 5] was 11.72%. The “Cardanol 15:3 concentration” value [1, 5] was 100.64 ppm, the “Anacardic Acid 15:1 Composition (%)” value [1, 6] was 39.28% and the “Anacardic Acid 15:1 concentration” value [1, 6] was 248.49 ppm. For the same molecule, the “Anacardic Acid 15:2 Composition (%)” value [1, 6] was 14.38%, the “Anacardic Acid 15:2 concentration” value [1, 6] was 90.98 ppm and the “Anacardic Acid 15:3 Composition (%)” value [1, 6] was 33.19%. For the same molecule, the “Anacardic Acid 15:3 concentration” value [1, 6] was 209.99 ppm, the “Cardanol 15:1 concentration” value [1, 6] was 34.38 ppm and the “Cardanol 15:2 Composition (%)” value [1, 6] was 2.45%. For the same molecule, the “Cardanol 15:2 concentration” value [1, 6] was 15.47 ppm, the “Cardanol 15:3 Composition (%)” value [1, 6] was 5.27% and the “Cardanol 15:3 concentration” value [1, 6] was 33.37 ppm. For the same molecule, the “Anacardic Acid 15:1 Composition (%)” value [1, 7] was 38.07%, the “Anacardic Acid 15:1 concentration” value [1, 7] was 273.99 ppm and the “Anacardic Acid 15:2 Composition (%)” value [1, 7] was 13.78%. For the same molecule, the “Anacardic Acid 15:2 concentration” value [1, 7] was 99.14 ppm, the “Anacardic Acid 15:3 Composition (%)” value [1, 7] was 31.48% and the “Anacardic Acid 15:3 concentration” value [1, 7] was 226.51 ppm. For the same molecule, the “Cardanol 15:1 concentration” value [1, 7] was 49.53 ppm, the “Cardanol 15:2 Composition (%)” value [1, 7] was 3.30% and the “Cardanol 15:2 concentration” value [1, 7] was 23.72 ppm. For the same molecule, the “Cardanol 15:3 Composition (%)” value [1, 7] was 6.49%, the “Cardanol 15:3 concentration” value [1, 7] was 46.72 ppm and the “Anacardic Acid 15:1 Composition (%)” value [2, 4] was 39.36%. The “Anacardic Acid 15:1 concentration” value [2, 4] was 161.67 ppm, the “Anacardic Acid 15:2 Composition (%)” value [2, 4] was 14.07% and the “Anacardic Acid 15:2 concentration” value [2, 4] was 57.80 ppm. The “Anacardic Acid 15:3 Composition (%)” value [2, 4] was 32.64%, the “Anacardic Acid 15:3 concentration” value [2, 4] was 134.06 ppm and the “Cardanol 15:1 concentration” value [2, 4] was 23.41 ppm. For the same molecule, the “Cardanol 15:2 Composition (%)” value [2, 4] was 2.78%, the “Cardanol 15:2 concentration” value [2, 4] was 11.43 ppm and the “Cardanol 15:3 Composition (%)” value [2, 4] was 5.44%. For the same molecule, the “Cardanol 15:3 concentration” value [2, 4] was 22.36 ppm, the “Anacardic Acid 15:1 Composition (%)” value [2, 5] was 32.92% and the “Anacardic Acid 15:1 concentration” value [2, 5] was 121.26 ppm. The “Anacardic Acid 15:2 Composition (%)” value [2, 5] was 11.63%, the “Anacardic Acid 15:2 concentration” value [2, 5] was 42.84 ppm and the “Anacardic Acid 15:3 Composition (%)” value [2, 5] was 26.37%. The “Anacardic Acid 15:3 concentration” value [2, 5] was 97.14 ppm, the “Cardanol 15:1 Composition (%)” value [2, 5] was 12.91% and the “Cardanol 15:1 concentration” value [2, 5] was 47.56 ppm. For the same molecule, the “Cardanol 15:2 Composition (%)” value [2, 5] was 4.67%, the “Cardanol 15:2 concentration” value [2, 5] was 17.19 ppm and the “Cardanol 15:3 Composition (%)” value [2, 5] was 11.49%. The “Cardanol 15:3 concentration” value [2, 5] was 42.34 ppm, the “Anacardic Acid 15:1 Composition (%)” value [2, 6] was 39.73% and the “Anacardic Acid 15:1 concentration” value [2, 6] was 151.81 ppm. For the same molecule, the “Anacardic Acid 15:2 Composition (%)” value [2, 6] was 14.05%, the “Anacardic Acid 15:2 concentration” value [2, 6] was 53.68 ppm and the “Anacardic Acid 15:3 Composition (%)” value [2, 6] was 32.47%. The “Anacardic Acid 15:3 concentration” value [2, 6] was 124.09 ppm, the “Cardanol 15:1 concentration” value [2, 6] was 21.54 ppm and the “Cardanol 15:2 Composition (%)” value [2, 6] was 2.79%. The “Cardanol 15:2 concentration” value [2, 6] was 10.67 ppm, the “Cardanol 15:3 Composition (%)” value [2, 6] was 5.32% and the “Cardanol 15:3 concentration” value [2, 6] was 20.34 ppm. For the same molecule, the “Anacardic Acid 15:1 Composition (%)” value [2, 7] was 38.12%, the “Anacardic Acid 15:1 concentration” value [2, 7] was 136.67 ppm and the “Anacardic Acid 15:2 Composition (%)” value [2, 7] was 14.58%. For the same molecule, the “Anacardic Acid 15:2 concentration” value [2, 7] was 52.15 ppm, the “Anacardic Acid 15:3 Composition (%)” value [2, 7] was 30.40% and the “Anacardic Acid 15:3 concentration” value [2, 7] was 108.99 ppm. The “Cardanol 15:1 Composition (%)” value [2, 7] was 7.19%, the “Cardanol 15:1 concentration” value [2, 7] was 25.79 ppm and the “Cardanol 15:2 Composition (%)” value [2, 7] was 3.19%. For the same molecule, the “Cardanol 15:2 concentration” value [2, 7] was 11.43 ppm, the “Cardanol 15:3 Composition (%)” value [2, 7] was 6.55% and the “Cardanol 15:3 concentration” value [2, 7] was 23.49 ppm. For the same molecule, the “inhibition of the decarboxylation” value ([2]; 2% by weight) was “moderate inhibition”, the “inhibition of the decarboxylation” value ([2]; 10% by weight) was “significant inhibition” and the “stability of the shell liquid in the feed (progress of the decarboxylation)” value ([3]; in feed, 3 days) was “stable in the feed without progress of the decarboxylation”. For the same molecule, the “Anacardic Acid 15:1 Composition (%)” value [3, 8] was 40.28%, the “Anacardic Acid 15:1 concentration” value [3, 8] was 363.92 ppm and the “Anacardic Acid 15:2 Composition (%)” value [3, 8] was 13.76%. The “Anacardic Acid 15:2 concentration” value [3, 8] was 124.28 ppm, the “Anacardic Acid 15:3 Composition (%)” value [3, 8] was 33.11% and the “Anacardic Acid 15:3 concentration” value [3, 8] was 299.13 ppm. For the same molecule, the “Cardanol 15:1 concentration” value [3, 8] was 48.69 ppm, the “Cardanol 15:2 Composition (%)” value [3, 8] was 2.31% and the “Cardanol 15:2 concentration” value [3, 8] was 20.83 ppm. For the same molecule, the “Cardanol 15:3 Composition (%)” value [3, 8] was 5.15%, the “Cardanol 15:3 concentration” value [3, 8] was 46.52 ppm and the “Anacardic Acid 15:1 Composition (%)” value [3, 9] was 38.54%. For the same molecule, the “Anacardic Acid 15:1 concentration” value [3, 9] was 309.33 ppm, the “Anacardic Acid 15:2 Composition (%)” value [3, 9] was 13.16% and the “Anacardic Acid 15:2 concentration” value [3, 9] was 105.64 ppm. For the same molecule, the “Anacardic Acid 15:3 Composition (%)” value [3, 9] was 31.68%, the “Anacardic Acid 15:3 concentration” value [3, 9] was 254.26 ppm and the “Cardanol 15:1 Composition (%)” value [3, 9] was 6.98%. The “Cardanol 15:1 concentration” value [3, 9] was 56.00 ppm, the “Cardanol 15:2 Composition (%)” value [3, 9] was 2.98% and the “Cardanol 15:2 concentration” value [3, 9] was 23.95 ppm. The “Cardanol 15:3 Composition (%)” value [3, 9] was 6.67% and the “Cardanol 15:3 concentration” value [3, 9] was 53.50 ppm.
